Reference: patent US9861694B2, “EGFR antagonist for the treatment of heart disease” (priority 2010, dated 2018)

What was measured:
[1] = system: adult cardiac myofibroblasts; assay: Collagen I synthesis by PINP ELISA in conditioned media of treated cardiac myofibroblasts; type: cell-based, mice; settings: for decrease in collagen I synthesis: 10 ng/ml EGF, 24 hours
Experimental: (§1) Cardiac myofibroblast cultures were prepared from ventricles of WT and TIMP-3^−/− mice as previously described. Briefly, hearts were aseptically isolated from adult mice. The ventricles were minced and digested with collagenase and disapase. Fibroblasts subcultured for 2 generations were seeded on culture plates and used for all in vitro experiments. After 2 passages virtually all fibroblasts differentiate into myofibroblasts. Purity of myofibroblasts was verified by FSP-1 and α-smooth muscle actin double staining. Cell proliferation was assessed by Ki67 and FSP-1 double staining.
(§2) To determine the effect of EGF and TGF-β1 on collagen expression and synthesis, adult cardiac myofibroblasts subcultured for 2 generations were placed in low serum (5% FBS) for 24 hours and subsequently treated with either recombinant mouse EGF (rEGF, R&D […], CA) in DMEM containing 5% FBS and cultured for another 24 hours or with TGF-β1 (Millipore, Mass.) and cultured for another 48 hours. Cells were then harvested and experiments were conducted.
Collagen I synthesis was assessed in the LV myocardium and in conditioned media collected for cultured myofibroblasts using a rat/mouse procollagen I N-terminal peptide (PINP) ELISA kit (IDS-Medicorp, Quebec) according to the manufacturer's instructions. The LV tissues of sham mice and the infarct regions of WT and TIMP-3^−/− mice 5 days post-MI were homogenized in PBS and centrifuged. The supernatant was then collected and protein concentrations were measured. For tissues, 25 μg of total protein was used, while for media, 10 μL of conditioned media was used in the assay. Measurements of absorbances were made using SpectraMax M5 microplate reader at a wavelength of 450 nm. Values are expressed as either ng collagen per mg myocardial tissue or ng/ml conditioned media.

[2] = system: adult cardiac myofibroblasts; assay: Collagen I/III and TGF-β1 expression by real-time RT-PCR in treated cardiac myofibroblasts; type: cell-based, mice; settings: for decrease in TGF-β1 levels / decrease in collagen I expression / decrease in collagen III expression: 10 ng/ml EGF, 24 hours
Experimental: as §1, §2
Total RNA was extracted from adult cultured myofibroblasts as well as LV tissue of WT and TIMP-3^−/− sham and the infarct region of MI mice 5 days post-surgery using Trizol as previously described. cDNA was synthesized using M-MLV reverse transcriptase (Invitrogen, ON). Real-time PCR was conducted using SYBR Green PCR Master Mix as per manufacturer's instructions (Applied Biological Materials, BC). 28S rRNA (house keeping gene) was used as a loading control since previous studies have shown that it is a reliable loading control especially for use in experiments with hypoxia and MI [13].

[3] = 10 ng/ml TGF-β1 (high concentration), 48 hours, P<0.01

Substance	decrease in collagen I synthesis ([1]; TIMP-3−/− myofibroblasts) [%]	decrease in collagen I synthesis ([1]; WT myofibroblasts) [%]	effect on collagen I or III expression ([2]; 1 ng/ml EGF (low concentration))	decrease in TGF-β1 levels ([2]; TIMP-3−/− myofibroblasts) [%]	decrease in collagen I expression ([2]; TIMP-3−/− myofibroblasts) [%]	decrease in collagen III expression ([2]; TIMP-3−/− myofibroblasts) [%]	decrease in TGF-β1 levels ([2]; WT myofibroblasts) [%]	decrease in collagen I expression ([2]; WT myofibroblasts) [%]	decrease in collagen III expression ([2]; WT myofibroblasts) [%]	collagen I synthesis [1, 3]	collagen I and III expression ([2]; 1 ng/ml TGF-β1 (low concentration), 48 hours, P<0.05)	collagen I expression [2, 3]	effect on collagen III compared to controls ([2]; 10 ng/ml TGF-β1 (high concentration), 48 hours, P=n.s.)
EGF: recombinant mouse epidermal growth factor (rEGF) used to treat cardiac myofibroblasts	39	28	little effect	43	47	51	22	38	41	–	–	–	–
TGF-β1: human recombinant transforming growth factor-beta 1 (Millipore) used to treat cardiac myofibroblasts	–	–	–	–	–	–	–	–	–	further increase	significant increase	further increase	no effect
